This note sets out measurements from patent US20100249043A1, “COMPOSITIONS AND METHODS FOR PROMOTING HAIR GROWTH” (LA CANADA VENTRURES, INC., priority 2009, published 2010).

This test has as its system scalp hair. Nature of the test: scalp hair conditioner / scalp serum applied to dry scalp, monthly follow up with photographs. Conditions: applied to dry scalp after cleansing. Format: in vivo.

From the text: The subjects were asked to apply the scalp serum with various concentrations of prostaglandin (dechloroethylcloprostenolamide from 0 wt % to 0.03 wt %), and a placebo is applied on the separate portion of the scalp. […] All the agents are applied directly to dry scalp after cleansing. Follow up are done monthly and photographs are taken.

“dechloroethylcloprostenolamide [prostaglandin]”: the “time to response on scalp” value was found to be 3 month.
